The values that follow are results of earlier work, collected in PubChem BioAssay AID1259410 (Chemical Carcinogenesis Research Information System (CCRIS), 2018).

The data set concerns rodent tumor promotion studies, tumor incidence. Description: CCRIS tumor promotion studies.

In the case of `C1CCCCC1`, the outcome (Carcinogen: DIMETHYLBENZ[A]ANTHRACENE, 57-97-6, Doses [Carcinogen]: 0.2 UMOL (51.2 UG) IN O.2 ML ACETONE ONCE, Doses [Promoter]: 0, 100 µL 3/WK ADMINISTERED 7 D POST CARCINOGEN DOSE AND CONTINUING FOR DURATION OF STUDY (STUDY DURATION: 1 YR), Route [Carcinogen]: DERMAL, Route [Promoter]: DERMAL, Species: MOUSE, Strain/Sex: SWISS/FEMALE) is reported as “skin: tumor, squamous cell papilloma, keratoacanthoma”.
For `COc1cc(NS(=O)(=O)c2ccc(N)cc2)nc(OC)n1`, the outcome is “thyroid: negative for tumors” (Carcinogen: Kojic acid, 501-30-4, Doses [Carcinogen]: 0.02, 0.2, 2% in diet for 8 wk before administration of promoter, Doses [Carcinogen]: 0.02, 0.2, 2% in diet for 8 wk before administration of promoter, Doses [Promoter]: 0.1% in drinking water from 8 wk to 31 wk of experiment, study duration 44 wk, Route [Carcinogen]: Oral, Route [Promoter]: Oral, Species: Rat, Strain/Sex: F344//Male (20/experimental group (10 killed at 31 wk & 10 killed at 44 wk); 15/controls)); “thyroid: adenoma and carcinoma at both 31 and 44 wk” (Carcinogen: N-bis(2-hydroxypropyl)nitrosamine, 53609-64-6, Doses [Carcinogen]: 700 mg/kg, 4 injections administered over 8 wk before promoter, Doses [Promoter]: 0.1% in drinking water from 8 wk to 31 wk of experiment, study duration 44 wk, Route [Carcinogen]: Subcutaneous, Route [Promoter]: Oral, Species: Rat, Strain/Sex: F344//Male (20/experimental group (10 killed at 31 wk & 10 killed at 44 wk); 15/controls)).
Regarding `Oc1ccc(F)cc1`, under “Carcinogen: 7,12-DIMETHYLBENZ(A)ANTHRACENE, Doses [Carcinogen]: TOP, Route [Carcinogen]: DERMAL, Route [Promoter]: DERMAL, Species: MOUSE, Strain/Sex: FEMALE”, the outcome was “integumentary system (skin)”.
